Drawing on patent publication US9669034B2, “4-aryl-N-phenyl-1,3,5-triazin-2-amines containing a sulfoximine group” (BAYER INTELLECTUAL PROPERTY GMBH, priority 2011, dated 2017), this text covers IC50 for 13 compounds.

Read-outs that look alike come from different tables or passages of the source.

The test system of assay [1] is B16F10 mouse melanoma cells. In words: Proliferation assay (crystal violet), B16F10. Format: cell-based. As to conditions: Method 3, read-out: Inhibition of B16F10 cell proliferation, IC50. The protocol: (§1) Cultivated tumour cells (NCI-H460, human non-small cell lung carcinoma cells, ATCC HTB-177; DU145, hormone-independent human prostate carcinoma cells, ATCC HTB-81; HeLa-MaTu, human cervical carcinoma cells, EPO-GmbH, Berlin; HeLa-MaTu-ADR, multidrug-resistant human cervical carcinoma cells, EPO-GmbH, Berlin; HeLa human cervical tumour cells, ATCC CCL-2; Caco-2 human colorectal carcinoma, ATCC HTB-37; B16F10 mouse melanoma cells, ATCC CRL-6475) were plated at a density of 5000 cells/well (DU145, HeLa-MaTu-ADR), 3000 cells/well (NCI-H460, HeLa-MaTu, HeLa), 1500 cells/well (Caco-2), or 1000 cells/well (B16 F10) in a 96-well multititer plate in 200 μL of their respective growth medium supplemented 10% fetal calf serum. After 24 hours, the cells of one plate (zero-point plate) were stained with crystal violet (see below), while the medium of the other plates was replaced by fresh culture medium (200 μL), to which the test substances were added in various concentrations (0 M, as well as in the range of […]; the final concentration of the solvent dimethylsulfoxide was 0.5%). The cells were incubated for 4 days in the presence of test substances. Cell proliferation was determined by staining the cells with crystal violet: the cells were fixed by adding 20 μL/measuring point of an 11% glutaric aldehyde solution for 15 minutes at room temperature. After three washing cycles of the fixed cells with water, the plates were dried at room temperature. The cells were stained by adding 100 μL/measuring point of a 0.1% crystal violet solution (pH 3.0). After three washing cycles of the stained cells with water, the plates were dried at room temperature. The dye was dissolved by adding 100 μL/measuring point of a 10% acetic acid solution. The absorbance was determined by photometry at a wavelength of 595 nm. The change of cell number, in percent, was calculated by normalization of the measured values to the absorbance values of the zero-point plate (=0%) and the absorbance of the untreated (0 M) cells (=100%). The IC50 values were determined by means of a 4 parameter fit.

Assay [2] concerns NCI-H460, human non-small cell lung carcinoma cells. In words: Proliferation assay (crystal violet), NCI-H460. The class given is cell-based. The settings on record: Method 3, read-out: Inhibition of NCI-H460 cell proliferation, IC50. On the procedure: as §1
In assay [3] the test system is Caco-2 human colorectal carcinoma. In words: Proliferation assay (crystal violet), Caco-2. Format: cell-based. The settings on record: Method 3, read-out: Inhibition of Caco-2 cell proliferation, IC50. The protocol:
as §1

The test system of assay [4] is HeLa-MaTu-ADR, multidrug-resistant human cervical carcinoma cells. In words: Proliferation assay (crystal violet), HeLa-MaTu-ADR. The class given is cell-based. The settings on record: Method 3, read-out: Inhibition of HeLa/MaTu/ADR cell proliferation, IC50. On the procedure: as §1
In assay [5] the test system is DU145, hormone-independent human prostate carcinoma cells. In words: Proliferation assay (crystal violet), DU145. The settings on record: Method 3, read-out: Inhibition of DU145 cell proliferation, IC50. Format: cell-based. On the procedure: as §1
In another assay the target is CDK9/CycT1 (Homo sapiens (Human), UniProt P50750). In words: CDK9/CycT1 kinase assay (TR-FRET). Format: biochemical. As to conditions: Method 1. In short, it runs like this: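 Recombinant full-length His-tagged human CDK9/CycT1, insect-cell expressed and Ni-NTA purified. Substrate is a biotinylated peptide (biotin-Ttds-linked). Kinase inhibition is read out by TR-FRET.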
CDK9/CycT1, sequence (P50750 whole entry): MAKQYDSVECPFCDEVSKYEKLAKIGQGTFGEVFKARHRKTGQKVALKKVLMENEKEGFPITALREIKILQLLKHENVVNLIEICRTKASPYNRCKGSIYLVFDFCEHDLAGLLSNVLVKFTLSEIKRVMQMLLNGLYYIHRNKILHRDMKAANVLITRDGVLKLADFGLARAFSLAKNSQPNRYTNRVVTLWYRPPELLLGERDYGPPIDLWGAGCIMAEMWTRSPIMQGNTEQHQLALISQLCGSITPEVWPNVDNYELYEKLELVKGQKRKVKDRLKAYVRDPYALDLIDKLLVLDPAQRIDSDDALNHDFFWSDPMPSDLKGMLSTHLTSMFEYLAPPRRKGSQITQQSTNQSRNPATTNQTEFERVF
CDK9/CycT1, sequence (O60563 whole entry partner): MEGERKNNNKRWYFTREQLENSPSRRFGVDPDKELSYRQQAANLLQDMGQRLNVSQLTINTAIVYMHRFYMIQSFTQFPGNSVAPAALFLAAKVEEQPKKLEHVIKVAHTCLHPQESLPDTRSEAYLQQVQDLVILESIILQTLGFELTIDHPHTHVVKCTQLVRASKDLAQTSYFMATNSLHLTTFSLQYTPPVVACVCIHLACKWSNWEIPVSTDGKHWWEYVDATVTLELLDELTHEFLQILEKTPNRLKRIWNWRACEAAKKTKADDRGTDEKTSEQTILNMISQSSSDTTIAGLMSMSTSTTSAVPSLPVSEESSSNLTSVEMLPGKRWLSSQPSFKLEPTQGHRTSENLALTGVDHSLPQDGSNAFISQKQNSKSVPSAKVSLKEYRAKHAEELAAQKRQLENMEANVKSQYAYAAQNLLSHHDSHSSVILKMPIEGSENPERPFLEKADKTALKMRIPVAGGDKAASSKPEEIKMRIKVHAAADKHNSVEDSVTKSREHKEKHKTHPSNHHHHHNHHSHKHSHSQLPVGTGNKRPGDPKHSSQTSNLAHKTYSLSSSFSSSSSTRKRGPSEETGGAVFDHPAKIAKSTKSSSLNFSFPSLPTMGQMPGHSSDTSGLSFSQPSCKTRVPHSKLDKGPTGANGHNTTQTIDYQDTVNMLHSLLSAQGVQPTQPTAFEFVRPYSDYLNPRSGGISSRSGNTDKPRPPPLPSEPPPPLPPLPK
Background: In TR-FRET formats the signal depends on donor and acceptor labels being close together.

The target of a further assay is CDK2/CycE (Homo sapiens (Human), UniProt P24941). In words: CDK2/CycE kinase assay (TR-FRET). Format: biochemical. As to conditions: Method 2. In short, it runs like this:
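Enzyme was GST-tagged human CDK2 with GST-tagged human CycE, expressed in Sf9 insect cells and glutathione-affinity purified. The kinase reaction used a biotinylated peptide substrate, with inhibition measured by TR-FRET.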

Assay [6] concerns HeLa human cervical tumour cells. In words: Proliferation assay (crystal violet), HeLa. As to conditions: Method 3, read-out: Inhibition of HeLa cell proliferation, IC50. The class given is cell-based. The protocol:
as §1

Setting [7] is: Mus musculus, B16-F10, B16F10 cells.
Where [8] appears, read: Homo sapiens, NCI-H460, NCI-H460 cells.
Where [9] appears, read: Homo sapiens, Caco-2, Caco-2 cells.
[10] abbreviates: Homo sapiens, DU-145, DU145 cells.

Turning to `C=CCOc1cc(F)ccc1-c1ncnc(Nc2cccc(CS(C)(=N)=O)c2)n1` (racemic) [Example 85, (rac)-4-[4-Fluoro-2-(prop-2-en-1-yloxy)phenyl]-N-{3-[(S-methylsulfonimidoyl)methyl]phenyl}-1,3,5-triazin-2-amine], the IC50 in assay [1] (setting [7]) was 0.28 µM; in assay [2] (setting [8]), 0.23 µM; in assay [3] (setting [9]), 0.051 µM; in assay [4] (Homo sapiens, HeLa) it was 0.56 µM; in assay [5] (setting [10]), 0.19 µM; at CDK9/CycT1, 0.009 µM. Moreover, the IC50 against CDK2/CycE is 0.38 µM; in assay [6] (Homo sapiens, HeLa) it was 0.33 µM.
On to `COc1cc(F)ccc1-c1ncnc(Nc2cc(F)c(F)c(CS(C)(=O)=NC#N)c2)n1` (racemic) [Example 105, (rac)-[(2,3-Difluoro-5-{[4-(4-fluoro-2-methoxyphenyl)-1,3,5-triazin-2-yl]amino}benzyl)(methyl)-oxido-λ^6-sulfanylidene]cyanamide], for which the IC50 amounted to 0.14 µM in assay [1] (setting [7]); 0.13 µM in assay [2] (setting [8]); 0.081 µM in assay [3] (setting [9]); 0.071 µM in assay [4] (Homo sapiens, HeLa); 0.12 µM in assay [5] (setting [10]); 0.003 µM on CDK9/CycT1. Moreover, the IC50 at CDK2/CycE was 0.14 µM; in assay [6] (Homo sapiens, HeLa), 0.11 µM.
Consider `COc1cc(F)ccc1-c1ncnc(Nc2cc(C)cc(CS(C)(=O)=NC#N)c2)n1` (racemic) [Example 111, (rac)-[(3-{[4-(4-Fluoro-2-methoxyphenyl)-1,3,5-triazin-2-yl]amino}-5-methylbenzyl)(methyl)oxido-λ^6-sulfanylidene]cyanamide], for which the IC50 in assay [1] (setting [7]) was found to be 0.13 µM; in assay [2] (setting [8]) it was 0.27 µM; in assay [3] (setting [9]), 0.22 µM; in assay [4] (Homo sapiens, HeLa), 0.17 µM; in assay [5] (setting [10]) it was 0.11 µM; at CDK9/CycT1, 0.003 µM. The IC50 against CDK2/CycE stood at 0.25 µM; in assay [6] (Homo sapiens, HeLa), 0.1 µM.
`CC#CCOc1cc(F)ccc1-c1ncnc(Nc2cccc(CS(C)(=N)=O)c2)n1` (single isomer, unassigned) [Example 75, 4-[2-(But-2-yn-1-yloxy)-4-fluorophenyl]-N-{3-[(S-methylsulfonimidoyl)methyl]phenyl}-1,3,5-triazin-2-amine]: the IC50 in assay [1] (B16F10 cells) worked out at 0.24 µM; in assay [2] (NCI-H460 cells), 0.22 µM; in assay [3] (Caco-2 cells) it was 0.31 µM; in assay [4], 0.21 µM; in assay [5] (DU145 cells) it was 0.17 µM; on CDK9/CycT1, 0.004 µM. The IC50 on CDK2/CycE amounted to 0.45 µM; in assay [6], 0.26 µM.
As to `CNC(=O)N=S(C)(=O)Cc1cccc(Nc2ncnc(-c3ccc(F)cc3OC)n2)c1` (racemic) [Example 15, (rac)-1-[(3-{[4-(4-Fluoro-2-methoxyphenyl)-1,3,5-triazin-2-yl]amino}benzyl)(methyl)oxido-λ^6-sulfanylidene]-3-methylurea], the IC50 is 0.62 µM in assay [1] (setting [7]); 1 µM in assay [2] (setting [8]); 1 µM in assay [3] (setting [9]); 0.94 µM in assay [4] (Homo sapiens, HeLa); 0.37 µM in assay [5] (setting [10]); 0.007 µM against CDK9/CycT1. The IC50 on CDK2/CycE is 0.93 µM; in assay [6] (Homo sapiens, HeLa), 0.39 µM.
For the compound `COc1cc(F)ccc1-c1ncnc(Nc2cccc(CS(C)(=O)=NC(C)=O)c2)n1` (racemic) [Example 24, (rac)-N-[(3-{[4-(4-fluoro-2-methoxyphenyl)-1,3,5-triazin-2-yl]amino}benzyl)(methyl)oxido-λ^6-sulfanylidene]acetamide], the IC50 in assay [1] (setting [7]) was 0.94 µM; in assay [2] (setting [8]) it was 0.76 µM; in assay [3] (setting [9]), 0.71 µM; in assay [4] (Homo sapiens, HeLa), 0.52 µM; in assay [5] (setting [10]), 0.68 µM; against CDK9/CycT1, 0.011 µM. In addition, the IC50 against CDK2/CycE was found to be 1.8 µM; in assay [6] (Homo sapiens, HeLa) it was 0.49 µM.
Regarding `CCOC(=O)N=S(C)(=O)Cc1cc(F)cc(Nc2ncnc(-c3ccc(F)cc3OC)n2)c1` (racemic) [Example 51, (rac)-Ethyl [(3-fluoro-5-{[4-(4-fluoro-2-methoxyphenyl)-1,3,5-triazin-2-yl]amino}benzyl)(methyl)oxido-λ^6-sulfanylidene]carbamate], the IC50 in assay [1] (setting [7]) worked out at 0.34 µM; in assay [2] (setting [8]) it was 0.23 µM; in assay [3] (setting [9]), 0.29 µM; in assay [4] (Homo sapiens, HeLa), 0.24 µM; in assay [5] (setting [10]), 0.24 µM; against CDK2/CycE it was 0.43 µM. In assay [6] (Homo sapiens, HeLa), the IC50 turned out to be 0.3 µM.
Turning to `CCOC(=O)N=S(C)(=O)Cc1cccc(Nc2ncnc(-c3cc(F)c(F)cc3OC)n2)c1` (racemic) [Example 9, (rac)-Ethyl [(3-{[4-(4,5-difluoro-2-methoxyphenyl)-1,3,5-triazin-2-yl]amino}benzyl)(methyl)oxido-λ^6-sulfanylidene]carbamate], the IC50 worked out at 1 µM in assay [1] (setting [7]); 0.98 µM in assay [2] (setting [8]); 0.8 µM in assay [3] (setting [9]); 0.96 µM in assay [4] (Homo sapiens, HeLa); 0.9 µM in assay [5] (setting [10]); 0.008 µM against CDK9/CycT1. Further, the IC50 at CDK2/CycE worked out at 0.69 µM.
With `CS(=N)(=O)Cc1cccc(Nc2ncnc(-c3ccc(F)cc3OCC3CCCCC3)n2)c1` (racemic) [Example 55, (rac)-4-[2-(Cyclohexylmethoxy)-4-fluorophenyl]-N-{3-[(S-methylsulfonimidoyl)methyl]phenyl}-1,3,5-triazin-2-amine], the IC50 stood at 0.98 µM in assay [2] (setting [8]); 0.89 µM in assay [3] (setting [9]); 0.85 µM in assay [4] (Homo sapiens, HeLa); 0.99 µM in assay [5] (setting [10]); 0.01 µM against CDK9/CycT1; 2.2 µM against CDK2/CycE. Besides, in assay [6] (Homo sapiens, HeLa), the IC50 turned out to be 1 µM.
On to `CS(=N)(=O)Cc1cccc(Nc2ncnc(-c3ccc(F)cc3OCc3ccon3)n2)c1` (racemic) [Example 93, (rac)-4-[4-Fluoro-2-(1,2-oxazol-3-ylmethoxy)phenyl]-N-{3-[(S-methylsulfonimidoyl)methyl]phenyl}-1,3,5-triazin-2-amine], for which the IC50 on CDK9/CycT1 was determined as 0.007 µM; against CDK2/CycE, 2 µM; in assay [6] (Homo sapiens, HeLa), 0.68 µM.
Regarding `COc1cc(F)ccc1-c1ncnc(Nc2cc(F)cc(CS(C)(=N)=O)c2)n1` (racemic) [Example 52, (rac)-4-(4-Fluoro-2-methoxyphenyl)-N-{3-fluoro-5-[(S-methylsulfonimidoyl)methyl]phenyl}-1,3,5-triazin-2-amine], the IC50 was 0.55 µM in assay [1] (setting [7]); 0.65 µM in assay [2] (setting [8]); 0.69 µM in assay [3] (setting [9]); 0.14 µM in assay [4] (Homo sapiens, HeLa); 0.34 µM in assay [5] (setting [10]); 1 µM against CDK2/CycE. The IC50 in assay [6] (Homo sapiens, HeLa) was 0.41 µM.
For `CS(=N)(=O)Cc1cccc(Nc2ncnc(-c3ccc(F)cc3OCc3cc(F)c(F)cc3F)n2)c1` (racemic) [Example 103, (rac)-4-{4-Fluoro-2-[(2,4,5-trifluorobenzyl)oxy]phenyl}-N-{3-[(S-methylsulfonimidoyl)methyl]phenyl}-1,3,5-triazin-2-amine], the IC50 was found to be 0.007 µM on CDK9/CycT1; 1.2 µM against CDK2/CycE; 1.1 µM in assay [6] (Homo sapiens, HeLa).
The corresponding values for `CCOC(=O)N=S(C)(=O)Cc1cccc(Nc2ncnc(-c3ccccc3OC)n2)c1` (racemic) [Example 25, (rac)-Ethyl [(3-{[4-(2-methoxyphenyl)-1,3,5-triazin-2-yl]amino}benzyl)(methyl)oxido-λ^6-sulfanylidene]carbamate] are 0.028 µM, 6.3 µM and 1.1 µM.
